Results: article PMC5464773 (eLife, 2017)
Read-outs that look alike come from different tables or passages of the source.

Legend:
PC-3 cells = test: iBH3, cytochrome c release in unprimed cells (BAK/BAX activator function); assay type: cell-based
Method: (§1) To test the possibility that FS1, FS2 or FS3 may directly activate BAK and BAX, we measured cytochrome c release in two ‘unprimed’ cell lines (PC-3 and SF295). Unprimed cells require BAK/BAX activators to release cytochrome c ([Certo et al., 2006]).
(§2) Cell line identities were confirmed by STR profiling.
(§3) Plates were incubated at 25°C for 1 hr.

[1] = test system: BCR-ABL-expressing B-lineage acute lymphoblastic leukemia cells dependent on Mcl-1; conditions: iBH3 fits Mcl-1, sigmoidal dose-response (variable slope)
Method: (§4) As an additional test for on-pathway activity, we measured cytochrome c release in the same engineered cell lines in response to peptide treatment, using iBH3 profiling ([Ryan et al., 2016]).
(§5) The creation and characterization of the BCR-ABL-expressing B-lineage acute lymphoblastic leukemia suspension cell lines with engineered dependencies on human versions of anti-apoptotic genes is detailed in [Koss et al. (2016)]). Cells were grown in RPMI (Life Technologies, Carlsbad, CA) with 10% fetal bovine serum, 2 mM L-glutamine, 10 mL/L 100x Pen/Strep (Life Technologies # 15140122), 25 mM HEPES and 10 mL/L 100x NEAA (Life Technologies, 11140050). The adherent cell lines PC-3 (RRID: CVCL_0035) and SF295 (RRID: CVCL_1690) are from the NCI60 panel ([Lorenzi et al., 2009]) and were grown in RPMI (Life Technologies) with 10% fetal bovine serum, 2 mM L-glutamine and 10 mL/L 100x Pen/Strep (Life Technologies # 15140122 ). Cell line identities were confirmed by STR profiling. The Lookout Mycoplasma PCR detection kit (Sigma) was used to detect mycoplasma infection.
(§6) Cells were suspended in MEB buffer (150 mM mannitol, 50 mM KCl, 10 mM HEPES, 5 mM succinic acid, 20 μM EGTA, 20 μM EDTA, 0.1% BSA, final pH 7.4) at 0.5*10^6 cells/mL (adherent lines) or 2 *10^6 cells/mL (suspension lines). Cell suspension was added to a 384 non-binding well plate (10 μL/well) containing peptides at 2X final concentration in MEB with 20 μg/mL digitonin. Plates were incubated at 25°C for 1 hr. To terminate exposure, 10 μL of 4% formaldehyde in PBS was added to each well, plates were incubated for 10 min before addition of 10 μL N2 buffer (1.7M Tris, 1.25M glycine, pH 9.1) for 5 min. 10 μL of staining buffer (2% Tween20, 10% BSA, PBS) containing 10 μg/mL Hoechst 33342 and 1.25 μg/mL anti-cytochrome c Alexa647 conjugate (BioLegend clone 6H2.B4) was added to each well before sealing the plate and shaking overnight. The median fluorescence of the cytochrome c channel of Hoechst positive singlets was recorded by an IntelliCyt iQue Screener Plus. Cytochrome c release was determined by normalizing the median fluorescence intensity (MFI) data to positive control wells (Alamethicin) and negative control wells (DMSO) as follows: Cytochromecrelease=1−(MFIsample−MFIAlamethicin)/(MFIDMSO−MFIAlamethicin)

Bcl-w = biological target: T1, Bcl-w (Homo sapiens, UniProt Q92843); test: Competition fluorescence polarization (anisotropy) with fluoresceinated BIM; assay type: binding
T1 construct: c-myc
T1 sequence (Q92843 1-193): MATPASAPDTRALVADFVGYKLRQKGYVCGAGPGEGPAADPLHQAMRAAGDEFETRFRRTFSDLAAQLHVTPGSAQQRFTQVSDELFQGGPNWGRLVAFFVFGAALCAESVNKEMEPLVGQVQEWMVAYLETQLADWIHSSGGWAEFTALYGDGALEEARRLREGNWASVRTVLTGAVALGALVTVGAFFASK
Method: (§7) Plates were mixed at 23°C for 3 hr. Plates were read again at 24 to check equilibration. Experiments were done in at least triplicate.

Bcl-2 = biological target: T2, Bcl-2 (Homo sapiens, UniProt P10415); test: as above; assay type: binding
T2 construct: c-myc
T2 sequence (P10415 whole entry): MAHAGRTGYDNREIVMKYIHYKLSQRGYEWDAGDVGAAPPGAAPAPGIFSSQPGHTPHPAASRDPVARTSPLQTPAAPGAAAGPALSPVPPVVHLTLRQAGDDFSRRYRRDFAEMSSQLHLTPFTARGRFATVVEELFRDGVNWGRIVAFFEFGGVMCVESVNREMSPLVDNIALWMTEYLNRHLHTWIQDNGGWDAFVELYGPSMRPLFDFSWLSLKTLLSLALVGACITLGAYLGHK
Method: as §7

Bcl-xL = biological target: T3, Bcl-xL (Homo sapiens, UniProt Q07817); test: as above; assay type: binding
T3 construct: c-myc
T3 sequence (Q07817 whole entry): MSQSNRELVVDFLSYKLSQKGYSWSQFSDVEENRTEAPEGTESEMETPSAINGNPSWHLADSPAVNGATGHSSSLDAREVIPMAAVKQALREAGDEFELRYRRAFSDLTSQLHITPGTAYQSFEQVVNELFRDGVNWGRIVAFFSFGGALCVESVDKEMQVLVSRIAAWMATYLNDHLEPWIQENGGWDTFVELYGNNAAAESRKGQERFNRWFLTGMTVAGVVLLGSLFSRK
Method: as §7

Bfl-1 = biological target: T4, Bfl-1 (Homo sapiens, UniProt Q16548); test: as above; assay type: binding; conditions: for Ki / Ki (M) Bfl-1: competition FP source data; for Ki: mean of three replicates
T4 construct: c-myc
T4 sequence (Q16548 1-175): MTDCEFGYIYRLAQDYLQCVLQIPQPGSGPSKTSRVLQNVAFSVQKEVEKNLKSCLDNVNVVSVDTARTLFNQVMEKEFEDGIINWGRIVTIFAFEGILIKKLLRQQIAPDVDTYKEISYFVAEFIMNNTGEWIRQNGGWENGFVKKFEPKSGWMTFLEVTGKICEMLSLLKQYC
Method: as §7

SF295 cells = assay type: cell-based
Method: as §1, §2, §3

[2] = test system: BCR-ABL-expressing B-lineage acute lymphoblastic leukemia cells dependent on Bcl-2; test: iBH3 profiling, cytochrome c release; assay type: cell-based; conditions: iBH3 fits Bcl-2, sigmoidal dose-response (variable slope)
Method: as §4, §5, §6

Mcl-1 = biological target: T5, Mcl-1 (Homo sapiens, UniProt Q07820); test: Competition fluorescence polarization (anisotropy) with fluoresceinated BIM; assay type: binding
T5 construct: c-myc
T5 sequence (Q07820 whole entry): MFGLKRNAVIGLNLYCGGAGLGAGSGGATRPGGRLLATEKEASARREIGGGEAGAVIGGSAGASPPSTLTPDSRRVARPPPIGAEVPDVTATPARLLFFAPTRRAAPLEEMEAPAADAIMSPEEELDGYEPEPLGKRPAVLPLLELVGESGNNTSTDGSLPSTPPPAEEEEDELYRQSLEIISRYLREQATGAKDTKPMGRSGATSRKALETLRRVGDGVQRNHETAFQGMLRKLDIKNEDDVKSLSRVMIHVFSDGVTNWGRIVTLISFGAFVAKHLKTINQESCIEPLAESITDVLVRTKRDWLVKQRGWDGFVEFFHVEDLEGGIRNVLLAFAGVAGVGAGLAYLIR
Method: C-myc-tagged receptors were used for all Bcl-2 homologs, as previously described ([DeBartolo et al., 2012]; [Dutta et al., 2010]). Plates were mixed at 23°C for 3 hr. Plates were read again at 24 to check equilibration. Experiments were done in at least triplicate. Data were fit, as described for competition fluorescence anisotropy experiments in [Foight et al. (2014]), to a complete competitive binding model (equation 17 in [Roehrl et al. [2004]]) using a Python script.

[3] = iBH3 fit PC-3, sigmoidal dose-response (variable slope), fit of 4 replicates
[4] = competition FP source data, mean of three replicates, values above 5 μM are reported as > 5 μM in the figures, read-out: mean Ki (M) Bcl-w
[5] = competition FP source data, replicate 1
[6] = competition FP source data, replicate 2
[7] = competition FP source data, replicate 3
[8] = SF295 cells, iBH3 fit, sigmoidal dose-response (variable slope)
[9] = competition FP, 50 nM c-myc-tagged receptor + 25 nM fluoresceinated BIM, Tris pH 7.8, 23°C, 3 hr, mean ± SD of three replicates, read-out: Ki (nM) Bcl-w
[10] = competition FP, 50 nM c-myc-tagged receptor + 25 nM fluoresceinated BIM, Tris pH 7.8, 23°C, 3 hr, mean ± SD of three replicates, read-out: Ki (nM) Bcl-2
[11] = competition FP, 50 nM c-myc-tagged receptor + 25 nM fluoresceinated BIM, Tris pH 7.8, 23°C, 3 hr, mean ± SD of three replicates, read-out: Ki (nM) Bcl-xL
[12] = competition FP source data, mean of three replicates, values above 5 μM are reported as > 5 μM in the figures, read-out: mean Ki (M) Mcl-1
[13] = competition FP, 50 nM c-myc-tagged receptor + 25 nM fluoresceinated BIM, Tris pH 7.8, 23°C, 3 hr, mean ± SD of three replicates, read-out: Ki (nM) Mcl-1

Molecule | Ki (Bcl-w; [4]) [M] | Ki (M) Bcl-w (Bcl-w; [5]) [M] | Ki (M) Bcl-w (Bcl-w; [6]) [M] | Ki (M) Bcl-w (Bcl-w; [7]) [M] | Ki (M) Bcl-2 (Bcl-2; [5]) [M] | Ki (M) Bcl-2 (Bcl-2; [6]) [M] | Ki (M) Bcl-2 (Bcl-2; [7]) [M] | Ki (M) Bcl-xL (Bcl-xL; [5]) [M] | Ki (M) Bcl-xL (Bcl-xL; [6]) [M] | Ki (M) Bcl-xL (Bcl-xL; [7]) [M] | Ki (Bfl-1) [nM] | Ki (M) Bfl-1 (Bfl-1; replicate 1) [M] | Ki (M) Bfl-1 (Bfl-1; replicate 2) [M] | Ki (M) Bfl-1 (Bfl-1; replicate 3) [M] | Ki (M) Mcl-1 (Mcl-1; [5]) [M] | Ki (M) Mcl-1 (Mcl-1; [6]) [M] | Ki (M) Mcl-1 (Mcl-1; [7]) [M] | Ki (Bcl-w; [9]) [M] | Ki (Bcl-2; [10]) [nM] | Ki (Bcl-xL; [11]) [M] | other results
CC[C@H](C)[C@H](NC(=O)[C@H](CCC(=O)O)NC(=O)[C@H](CCCNC(=N)N)NC(=O)[C@H](C)NC(=O)[C@H](Cc1c[nH]c2ccccc12)NC(=O)[C@H](CCC(N)=O)NC(C)=O)C(=O)NCC(=O)N[C@@H](C)C(=O)N[C@@H](CCC(N)=O)C(=O)N[C@@H](CC(C)C)C(=O)N[C@@H](CCCNC(=N)N)C(=O)N[C@@H](CCCNC(=N)N)C(=O)N[C@@H](CCSC)C(=O)N[C@@H](C)C(=O)N[C@@H](CC(=O)O)C(=O)N[C@@H](CC(=O)O)C(=O)N[C@@H](CC(C)C)C(=O)N[C@@H](CC(N)=O)C(=O)N[C@@H](C)C(=O)N[C@@H](CCC(N)=O)C(=O)N[C@@H](Cc1ccc(O)cc1)C(=O)N[C@@H](CCC(=O)O)C(=O)N[C@@H](CCCNC(=N)N)C(N)=O [PUMA, reference compound] | 2.97e-09 | 4.44e-09 | 4.04e-09 | 4.31e-10 | 4.27e-09 | 9.91e-09 | 2.68e-09 | 2.23e-09 | 4.17e-09 | 4.19e-10 | 4.84 | 4.9e-09 | 5.4e-09 | 4.23e-09 | 2.28e-09 | 3.28e-09 | 1.63e-09 | – | – | – | peptide concentration leading to cytochrome c release in unprimed cells (PC-3 cells; PC-3, unprimed, iBH3, 25°C, 1 hr): observed cytochrome c release; LogEC50 (best-fit value) (PC-3 cells; iBH3 fit PC-3, log of EC50, x axis Log [Peptide M], sigmoidal dose-response (variable slope)): -6.309; HillSlope (best-fit value) (PC-3 cells; iBH3 fit PC-3, sigmoidal dose-response (variable slope)): 1.567; Bottom (best-fit value) (PC-3 cells; [3]): 0.1477; Top (best-fit value) (PC-3 cells; [3]): 0.7911; HillSlope (best-fit value) [1]: ~ 1.358; Bottom (best-fit value) ([1]; fit of 3 replicates): ~ -276.9; Top (best-fit value) ([1]; fit of 3 replicates): 0.9859; peptide concentration leading to cytochrome c release in unprimed cells (SF295 cells; SF295, unprimed, iBH3, 25°C, 1 hr): observed cytochrome c release; Bottom (best-fit value) (SF295 cells; [8]): -0.02393; HillSlope (best-fit value) (SF295 cells; [8]): 0.4226; Top (best-fit value) (SF295 cells; [8]): 0.958; LogEC50 (best-fit value) (SF295 cells; SF295 cells, iBH3 fit, sigmoidal dose-response (variable slope), log of peptide concentration in M): -5.945; LogEC50 (best-fit value) ([2]; log of EC50, x axis Log [Peptide M]): -7.436; HillSlope (best-fit value) [2]: 1.78; Bottom (best-fit value) ([2]; fit of 3 replicates): 0.2923; Top (best-fit value) ([2]; fit of 3 replicates): 1.01
Ac-QWAREIGAGLRRAADDVNAQVER-NH2 [Puma_N/FS2_C] | – | – | – | – | – | – | – | 3.68e-09 | 1.31e-09 | 2.24e-09 | – | – | – | – | 6.72e-10 | 1.94e-10 | 1.4e-10 | > 5e-06 | 2000 ± 160 | 1.1e-06 ± 3e-07 | Ki (Bcl-xL; competition FP source data, mean of three replicates, values above 5 μM are reported as > 5 μM in the figures, read-out: mean Ki (M) Bcl-xL): 2.41e-09 M; Ki (Mcl-1; [12]): 3.36e-10 M; Ki (Mcl-1; [13]): > 5e-06 M
Ac-QWVREIAAQLRRMADDLNAQYER-NH2 [FS2_N/Puma_C] | 8.83e-06 | 9.94e-06 | 6.82e-06 | 9.74e-06 | 1.99e-06 | 1.85e-06 | 2.17e-06 | – | – | – | 594 | 4.65e-07 | 6.79e-07 | 6.37e-07 | 5.7e-06 | 6.84e-05 | 0.00018 | 1.2e-09 ± 3e-10 | 14 ± 2 | 2.4e-09 ± 1.2e-09 | Ki (Bcl-2; competition FP source data, mean of three replicates, values above 5 μM are reported as > 5 μM in the figures, read-out: mean Ki (M) Bcl-2): 2000 nM; Ki (Mcl-1; [12]): 8.46e-05 M; Ki (Mcl-1; [13]): 3e-10 ± 3e-10 M
Ac-RPVIWIAQGLRRAGDEVNAYVAR-NH2 [BIM-FS2] | – | – | – | – | – | – | – | – | – | – | – | 7.75e-07 | 7.87e-07 | 5.89e-07 | – | – | – | – | – | – | fold weaker binding to Bfl-1 than native BIM (Bfl-1; ratio of Ki values from competition FP): > 1000 fold
